Source: patent US5698590A, “Prostaglandin derivatives” (Ono Pharmaceutical Co., Ltd., priority 1995, dated 1997)

Columns and labels:
[1] = system: blood pressure; experiment: hypotensive effect in anesthetized rats (maximum hypotensive activity); assay type: in vivo, Male rats; conditions: for Hypotensive effect: Maximum hypotension on dose (A): at dose (A) required to obtain AUC = 771; for Hypotensive effect: Maximum hypotension on dose (A) / Hypotensive effect: Maximum hypotension: rat; for Hypotensive effect: Maximum hypotension: injection via jugular vein; for Hypotensive effect: Relative activity (X): relative to comparative compound = 1, at dose (A)
Procedure: (§1) Male rats weighing 200-350 g were anesthetized with urethane (25% urethane, 6 ml/kg, s.c.). The carotid artery and jugular vein were cannulated with polyethylene tubes for measurement of blood pressure and for drug injection, respectively. Blood pressure was obtained with a disposable pressure transducer kit (Spectramed, Ltd) and recorded with a recticoder (model RJG-4128, Nihon kohden, Ltd). Also, blood flow was monitored as cutaneous blood flow of the dorsum pedis using an attachment-type laser-Doppler flowmeter (model ALF21, Advance, Ltd). Measurements were taken until the values recovered to the level observed before injection of drugs. Injection time was about 10 seconds. The hypotensive effect and blood flow increasing effect were calculated as the maximum hypotensive activity (mmHg) and the area under the curve (AUC) after injection of drugs, respectively.
(§2) The results were represented by the dose required to obtain an effective increase in blood flow (main effect), and by the hypotensive effect (side effect) at the same dose.
(§3) The compounds of the present invention were administered in the form of liposome formulations (as prepared in Example 3 below). […] The solubility of this comparative compound was very low; thus, administration without solubilizer was impossible.
(§4) The dry lipid film was dispersed into a 10% maltose solution (3 ml) by using a vortex mixer (type S-100, Taiyokagaku Inc.) and an aqueous suspension with a drug concentration of 1, 3, 10, or 30 μg/ml was obtained. The obtained multilamellar liposome solutions (3 ml) were transferred into plastic tubes and then sonicated with a probe sonicator (type: SONIFIER cell disruptor 200, Branson) at the condition of 50% pulsed operation for 15 minutes. The sonicated solutions were passed through a membrane filter with a pore diameter of 0.2 μm to remove titanium particles and liposome formulations with a mean diameter of 40-70 nm were formed.

[2] = system: cutaneous blood flow of the dorsum pedis; experiment: blood flow increasing effect in anesthetized rats (laser-Doppler flowmetry, AUC); assay type: in vivo, Male rats; parameters: Blood flow increasing effect: Total AUC: unit not given here; conditions: for Blood flow increasing effect: Total AUC / Blood flow increasing effect: Dose (A) required to obtain AUC = 771: rat; for Blood flow increasing effect: Total AUC: injection via jugular vein; for Blood flow increasing effect: Dose (A) required to obtain AUC = 771: AUC 771 = effect of PGE1 lipid emulsion 5 μg/kg i.v.; for Blood flow increasing effect: Relative activity (X): relative to comparative compound = 1, from Dose (A)
Procedure: as §1, §2, §3
The effectiveness of increasing blood flow was determined by the following method.
as §4

[3] = solubility of comparative compound; assay type: physicochemical; conditions: administration without solubilizer was impossible

SMILES	Hypotensive effect: Maximum hypotension on dose (A) [1] [mmHg]	Hypotensive effect: Maximum hypotension ([1]; dose 1 μg/kg) [mmHg]	Hypotensive effect: Maximum hypotension ([1]; dose 3 μg/kg) [mmHg]	Hypotensive effect: Maximum hypotension ([1]; dose 10 μg/kg) [mmHg]	Hypotensive effect: Relative activity (X) [1]	Blood flow increasing effect: Total AUC ([2]; dose 1 μg/kg)	Blood flow increasing effect: Total AUC ([2]; dose 3 μg/kg)	Blood flow increasing effect: Total AUC ([2]; dose 10 μg/kg)	Blood flow increasing effect: Dose (A) required to obtain AUC = 771 [2] [µg/kg]	Blood flow increasing effect: Relative activity (X) [2]	Hypotensive effect: Maximum hypotension ([1]; dose 30 μg/kg) [mmHg]	solubility [3]	Blood flow increasing effect: Total AUC ([2]; dose 30 μg/kg)
CCCCCC(=O)OCC(COC(=O)CCCCC)OC(=O)CCCCCC[C@H]1C(=O)C[C@@H](O)[C@@H]1/C=C/[C@@H](O)CCCCC [Example 2, PGE1 1,3-bis (hexanoyloxy)-2-propyl ester]	6.7	4	9	19	0.94	185	1206	3919	2.2	10.7	–	–	–
CCCCCCCCCCCC(=O)OCC(COC(=O)CCCCCCCCCCC)OC(=O)CCCCCC[C@H]1C(=O)C[C@@H](O)[C@@H]1/C=C/[C@@H](O)CCCCC [Example 1, PGE1 1,3-bis (dodecanoyloxy)-2-propyl ester]	2.2	0	1	9	0.31	116	483	2566	3.6	6.6	–	–	–
CCCCCCCCCCCCCCCC(=O)OCC(COC(=O)CCCCCCCCCCCCCCC)OC(=O)CCCCCC[C@H]1C(=O)C[C@@H](O)[C@@H]1/C=C/[C@@H](O)CCCCC [Comparative compound, PGE1 1,3-bis(palmitoyloxy)-2-propyl ester, reference compound]	7.1	–	1	6	1	–	350	710	23.6	1	8	very low	830
